We go through one compound from PubChem BioAssay (NCI).

Each structure is given as a SMILES string.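 All cell lines were grown in 96-well plates and treated with compound for 48 hours. GI50: concentration for 50% inhibition of growth. TGI: concentration producing complete growth inhibition.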

Some test systems named below: ACHN renal; CCRF-CEM leukemia; EKVX NSCLC; HT29 colon; IGROV1 ovarian; M14 melanoma; MALME-3M melanoma; MOLT-4 leukemia; OVCAR-3 ovarian; U251 CNS.
Experiment in all cases: inhibition of tumour cell growth, NCI panel, 48 h

Take `C[C@]12CC[C@H](O)CC1=CC[C@@H]1[C@@H]2CC[C@]2(C)C(c3cccnc3)=CC[C@@H]12`: the GI50 was 18.7 µM with ACHN renal; greater than 96.6 µM in the test on CCRF-CEM leukemia; 6.08 µM with EKVX NSCLC; 56.2 µM with HT29 colon; greater than 100 µM in the test on IGROV1 ovarian; greater than 100 µM in the test with M14 melanoma. Besides, the GI50 in the test with MALME-3M melanoma was 54.3 µM; with MOLT-4 leukemia, greater than 38.5 µM; in the test on OVCAR-3 ovarian it was 82.1 µM; in the test with U251 CNS, 12.3 µM. In addition, the TGI in the test with ACHN renal, in the test on CCRF-CEM leukemia, with EKVX NSCLC, in the test with HT29 colon, in the test on IGROV1 ovarian and with M14 melanoma was greater than 100 µM throughout. Moreover, the TGI in the test on MALME-3M melanoma, with MOLT-4 leukemia, in the test on OVCAR-3 ovarian and in the test with U251 CNS was greater than 100 µM in each case.
